Holding throughout (format): functional
In test [1] the test system is Onchocerca lienalis. The experiment in a line: MMV: Percent motility assay at a compound concentration of 1.25e-5 M. Activity score legend: 3: Active, 2: Moderately active; 1: Inactive, 0: Toxic. The conditions noted are these: at 12.5 µM.
The subject of test [2] is Onchocerca lienalis. The experiment in a line: MMV: Percent motility assay at a compound concentration of 3.1e-6 M. Activity score legend: 3: Active, 2: Moderately active; 1: Inactive, 0: Toxic. The conditions noted are these: at 3.1 µM.
The test system of test [3] is Onchocerca lienalis. The experiment in a line: MMV: Percent motility assay at a compound concentration of 1.9e-7 M. Activity score legend: 3: Active, 2: Moderately active; 1: Inactive, 0: Toxic. The conditions noted are these: at 0.19 µM.
Test [4] concerns Onchocerca lienalis. The experiment in a line: MMV: Percent motility assay at a compound concentration of 7.8e-7 M. Activity score legend: 3: Active, 2: Moderately active; 1: Inactive, 0: Toxic. The conditions noted are these: at 0.78 µM.

In ChEMBL document CHEMBL3137381, “MMV Box Onchocerca lienalis screening set” one finds Motility data, which are given here for 37 molecules.

Turning to `O=C(Nc1ccc(Cl)c(Cl)c1)Nc1ccc(Cl)c(Cl)c1`, the Motility in test [1], in test [2], in test [3] and in test [4] was 100% in each case.

`COc1ccc(Nc2nc(N/N=C/c3ccc(O)cc3)nc(Nc3ccc([N+](=O)[O-])cc3)n2)cc1`: the Motility in test [1], in test [2], in test [3] and in test [4] was 100% each time.

`N=c1n(CCN2CCCCC2)c2ccccc2n1CC(=O)c1ccc(Cl)c(Cl)c1`: the Motility in test [1], in test [2], in test [3] and in test [4] was 100% in each case.

For the molecule `COc1ccc(-c2nc(N3CCN(C(=O)C4CCCCC4)CC3)c3c4c(sc3n2)CCCC4)cc1`, the Motility in test [1], in test [2], in test [3] and in test [4] was 100% in each case.

Take `Cc1sc(NC(=O)c2ccco2)c(C(c2cccnc2)N2CCC(Cc3ccccc3)CC2)c1C` (stereo not drawn): the Motility in test [1], in test [2], in test [3] and in test [4] was 100% throughout.

For the molecule `COc1cc(C(=O)Nc2nc3c(cc4c5c(cccc53)CC4)s2)cc(OC)c1OC`, the Motility in test [1], in test [2], in test [3] and in test [4] was 100% each time.

For `COc1ccc(CCN2C(=O)c3[nH]nc(-c4cc(Cl)c(C)cc4O)c3C2c2ccccc2F)cc1` (stereo not drawn), the Motility in test [1], in test [2], in test [3] and in test [4] was 100% in each case.

On to `O=C(NNc1cc(N2CCCC2)nc(N2CCCC2)n1)c1ccccc1`, for which the Motility in test [1], in test [2], in test [3] and in test [4] was 100% each time.

For `COC(=O)c1ccc(Cl)c2c1C1C=CCC1C(c1cccc3ccccc13)N2` (stereo not drawn), the Motility in test [1], in test [2], in test [3] and in test [4] was 100% in each case.

With `O=C(CCc1ccccc1)c1ccccc1OCC(O)CN1CCCCC1` (stereo not drawn), the Motility in test [1], in test [2], in test [3] and in test [4] was 100% throughout.

Consider `OC1=C2C(=Nc3ccccc3SC2c2ccccc2)c2ccccc21` (stereo not drawn), for which the Motility in test [1], in test [2], in test [3] and in test [4] was 100% throughout.

As for `COc1cc(C(=O)Nc2ccc(-c3nc4ccccc4[nH]3)cc2)cc(OC)c1OC`, the Motility in test [1], in test [2], in test [3] and in test [4] was 100% throughout.

Take `COC(=O)c1ccc(C2C3=C(O)CC(c4ccc(F)cc4)CC3=Nc3ccccc3N2C(=O)c2ccccc2)cc1` (stereo not drawn): the Motility in test [1], in test [2], in test [3] and in test [4] was 100% each time.

Regarding `CCOc1ccc(CN2CCN(CC(O)COc3ccc(OCC(O)CN4CCN(Cc5ccc(OCC)cc5)CC4)cc3)CC2)cc1` (stereo not drawn), the Motility in test [1], in test [2], in test [3] and in test [4] was 100% throughout.

Turning to `CCCCNc1nc(NC(C)(C)C)nc(NC(C)(C)C)n1`, the Motility in test [1], in test [2], in test [3] and in test [4] was 100% each time.

With `CC(=O)c1sc(NC(=O)Nc2ccc(C)cc2C)nc1C`, the Motility in test [1], in test [2], in test [3] and in test [4] was 100% in each case.

In the case of `Cn1c(C(=O)c2cccc3ccccc23)nc2ccccc21`, the Motility in test [1], in test [2], in test [3] and in test [4] was 100% each time.

Turning to `Oc1ccc2ccccc2c1CNc1nc2ccccc2[nH]1`, the Motility in test [1], in test [2], in test [3] and in test [4] was 100% each time.

`O=C(Nc1ccc(-c2nc3ccccc3[nH]2)cc1)c1ccc(Cl)c(Cl)c1`: the Motility in test [1], in test [2], in test [3] and in test [4] was 100% each time.

Regarding `OCCNc1nc(Nc2ccc(Cl)c(Cl)c2)nc2ccccc12`, the Motility in test [1] was found to be 20%; in test [2], 33.33%; in test [3], 100%; in test [4] it was 100%.

For `Nc1ccc(-c2nc3cc(Oc4ccc(Oc5ccc6[nH]c(-c7ccc(N)cc7)nc6c5)cc4)ccc3[nH]2)cc1`, the Motility in test [1], in test [2], in test [3] and in test [4] was 100% each time.

As for `Cc1cc(N(C)C)nc(Nc2ccc(NC(=O)Nc3ccccc3)cc2)n1`, the Motility in test [1], in test [2], in test [3] and in test [4] was 100% each time.

Regarding `COc1ccc(C(=O)C(CCC(CNC(C)(C)C)C(=O)c2ccc(OC)cc2)CNC(C)(C)C)cc1` (stereo not drawn), the Motility in test [1], in test [2], in test [3] and in test [4] was 100% throughout.

Turning to `COc1cc(C(=O)ON=C(N)Cc2cccc3ccccc23)cc(OC)c1OC`, the Motility in test [1], in test [2], in test [3] and in test [4] was 100% each time.

As for `Oc1c(C(Nc2ccccn2)c2cccc(Oc3ccccc3)c2)ccc2cccnc12` (stereo not drawn), the Motility worked out at 6.66% in test [1], 100% in test [2], 100% in test [3] and 100% in test [4].

`COc1cc(-c2nc(-c3ccccc3)c(-c3ccccc3)[nH]2)cc(OC)c1O`: the Motility in test [1], in test [2], in test [3] and in test [4] was 100% throughout.

As to `Cc1ccc(Nc2nc(N)c3ccccc3n2)cc1Cl`, the Motility in test [1], in test [2], in test [3] and in test [4] was 100% throughout.

Consider `CCc1ccc(CNCC(O)c2ccccc2)cc1.Cl` (stereo not drawn), for which the Motility in test [1], in test [2], in test [3] and in test [4] was 100% in each case.

Take `Br.CCn1c2c(c(=N)c3c1CCC3)CCCC2`: the Motility in test [1], in test [2], in test [3] and in test [4] was 100% in each case.

For the molecule `COc1cc(CNCCc2ccc(Cl)cc2)cc(OC)c1O`, the Motility in test [1], in test [2], in test [3] and in test [4] was 100% in each case.

Take `Cc1ccc2c(C)nc(Nc3nc(C)cc(-c4ccccc4)n3)nc2c1`: the Motility in test [1], in test [2], in test [3] and in test [4] was 100% each time.

`CCOc1ccc(Nc2ccnc3cc(Cl)ccc23)cc1`: the Motility in test [1], in test [2], in test [3] and in test [4] was 100% each time.

Turning to `Br.Cc1ccc(C)c(-c2csc(Nc3ccc(C)c(C)c3)n2)c1`, the Motility in test [1], in test [2], in test [3] and in test [4] was 100% throughout.

Consider `CCCn1c(=N)c(C(=O)NC2CCCCC2)cc2c(=O)n3cccc(C)c3nc21`, for which the Motility in test [1], in test [2], in test [3] and in test [4] was 100% each time.

For the molecule `Nc1ccn([C@@H]2O[C@H](CO)[C@@H](O)[C@H]2O)c(=O)n1` [CYTIDINE], the Motility in test [1], in test [2], in test [3] and in test [4] was 100% in each case.

Turning to `O=C(Nc1cccc(C2=NCCN2)c1)Nc1cccc(C2=NCCN2)c1` [IMIDOCARB], the Motility in test [1], in test [2], in test [3] and in test [4] was 100% each time.

For the molecule `CN(C)c1ccc(C(O)(c2ccc(N(C)C)cc2)c2ccc(N(C)C)cc2)cc1` [METHYLROSANILINE], the Motility is 100% in test [1], 100% in test [2], 100% in test [3] and 66.66% in test [4].
